Where two headings read alike, the source gives them in different places.
What was measured:
[1] = system: SPN 49619; experiment: MIC, broth microdilution (CLSI), substance alone or ATB combined with compound at 4 or 8 μg/mL; format: cell-based, S. pneumoniae; settings: Streptococcus pneumoniae, SPN 49619
In short: (§1)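 Broth microdilution; ca-MHB; 5·10^5 CFU/mL; 35° C, 16-20 h; compound alone or fixed 4/8 μg/mL with antibiotic series; endpoint = no visible growth.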

[2] = system: PAE UFR48; format: cell-based, P. aeruginosa; settings: tntbc: Too numerous to be counted
Protocol: (§2) Method 4: Determination of the Spontaneous Mutation Frequency of the Compounds Alone and Combined with Antibiotics.
(§3) Bacterial isolates (Table 3) were grown overnight at 35° C. on TSA plates (Becton-Dickinson and Company) in ambient air. After 24 h of incubation, isolated bacterial colonies were added to cation-adjusted Mueller-Hinton broth (ca-MHB; Becton-Dickinson and Company) and cultured for approximately 6 h at 35° C. The pre-culture was stopped once bacteria have reached an OD600 nm of 0.5 for 200 μL. The bacterial suspension was centrifuged at 4000 rpm for 20 min. The supernatant was then discarded and the bacterial pellet was dissolved in ca-MHB to obtain 10^9 to 10^10 CFU/mL. Assays including Fosfomycin were supplemented with 25 μg/ml of Glucose-6-phosphate. 100 μL of the adjusted bacterial suspension were spread on agar plates containing different concentrations of the compounds of the present invention alone or combined with an antibacterial (Table 1). The plates were incubated for 24-48 h at 35° C. in ambient air. CFU were numerated on each agar plate containing compound. The number of resistant colonies obtained was divided by the starting inoculum to give the frequency of spontaneous resistance for a given incubation time (24 and 48 h).

[3] = system: PAE UFR90; format: cell-based, P. aeruginosa; settings: tntbc: Too numerous to be counted
Protocol: as §2, §3

[4] = system: PAE 27853; format: cell-based, P. aeruginosa; settings: tntbc: Too numerous to be counted
Protocol: as §2, §3

[5] = system: ECL P99; experiment: MIC, broth microdilution (CLSI), substance alone or ATB combined with compound at 4 or 8 μg/mL; format: cell-based, E. cloacae; settings: Enterobacter cloacae, ECL P99
In short: as §1

[6] = system: KPN 6299; experiment: as above; format: cell-based, K. pneumoniae; settings: Klebsiella pneumoniae, antibiotic alone, read-out: MIC ATB alone
In short: as §1

[7] = system: KPN UFR68; experiment: as above; format: cell-based, K. pneumoniae; settings: Klebsiella pneumoniae, substance alone
In short: as §1

[8] = system: KPN BAA-1898; experiment: as above; format: cell-based, K. pneumoniae; settings: Klebsiella pneumoniae, BAA1898, KPN BAA-1898
In short: as §1

[9] = system: KPN UFR42; experiment: as above; format: cell-based, K. pneumoniae; settings: Klebsiella pneumoniae; antibiotic alone; KPN UFR42; read-out: MIC ATB alone
In short: as §1

[10] = system: SAU 29213; experiment: as above; format: cell-based, S. aureus; settings: Staphylococcus aureus
In short: as §1

[11] = system: PAE 105250; experiment: as above; format: cell-based, P. aeruginosa; settings: Pseudomonas aeruginosa; antibiotic alone; PAE 105250; read-out: MIC ATB alone
In short: as §1

[12] = system: PAE UFR48; experiment: as above; format: cell-based, P. aeruginosa; settings: Pseudomonas aeruginosa, antibiotic alone; PAE UFR48; read-out: MIC ATB alone
In short: as §1

[13] = system: PAE UFR90; experiment: as above; format: cell-based, P. aeruginosa; settings: PAE UFR90
In short: as §1

[14] = system: ECO 190317; experiment: as above; format: cell-based, E. coli; settings: Escherichia coli, ECO 190317
In short: as §1

[15] = system: ECO UFR39; experiment: as above; format: cell-based, E. coli; settings: Escherichia coli, ECO UFR39
In short: as §1

[16] = antibiotic alone, read-out: MIC ATB alone

Question: Which MIC [1, 16] does the source give for `C[C@@H]1O[C@@H]1P(=O)(O)O` [FOS, Fosfomycin, reference compound] here?
Answer: 32 µg/mL

Question: What about the MIC ([1]; substance alone, read-out: MIC) of the same molecule?
Answer: 32 µg/mL

Question: And the “Frequency of spontaneous resistance” value ([2]; single agent at 4.MIC)?
Answer: 1.1E−06

Question: And the “Frequency of spontaneous resistance” value ([2]; single agent at 8.MIC)?
Answer: 1.1E−06

Question: And the “Frequency of spontaneous resistance” value ([3]; single agent at 4.MIC)?
Answer: 3.0E−07

Question: What about the “Frequency of spontaneous resistance” value ([3]; single agent at 8.MIC) of the same molecule?
Answer: 2.0E−07

Question: What about the “Frequency of spontaneous resistance” value ([4]; single agent at 4.MIC) of the same molecule?
Answer: 1.2E−06

Question: And the “Frequency of spontaneous resistance” value ([4]; single agent at 8.MIC)?
Answer: 1.4E−06

Question: What about the MIC [5, 16] of the same molecule?
Answer: > 1020 µg/mL

Question: And the MIC ([5]; substance alone, read-out: MIC)?
Answer: > 1020 µg/mL

Question: And the MIC [6]?
Answer: > 128 µg/mL

Question: What about the MIC [7] of the same molecule?
Answer: 32 µg/mL

Question: And the MIC [8, 16]?
Answer: 64 µg/mL

Question: What about the MIC ([8]; substance alone, read-out: MIC) of the same molecule?
Answer: 64 µg/mL

Question: What about the MIC [9] of the same molecule?
Answer: 128 µg/mL

Question: What about the MIC ([10]; antibiotic alone, SAU 29213, read-out: MIC ATB alone) of the same molecule?
Answer: 2 µg/mL

Question: What about the MIC ([10]; substance alone, SAU 29213 (MSSA 29213), read-out: MIC) of the same molecule?
Answer: 2 µg/mL

Question: What about the MIC [11] of the same molecule?
Answer: 256 µg/mL

Question: And the MIC [12]?
Answer: 16 µg/mL

Question: What about the MIC ([13]; Pseudomonas aeruginosa, antibiotic alone, read-out: MIC ATB alone) of the same molecule?
Answer: 8 µg/mL

Question: And the MIC ([13]; Pseudomonas aeruginosa, substance alone, read-out: MIC)?
Answer: 16 µg/mL

Question: What about the MIC ([13]; substance alone) of the same molecule?
Answer: 8 µg/mL

Question: And the MIC [14, 16]?
Answer: 0.5 µg/mL

Question: What about the MIC ([14]; substance alone, read-out: MIC) of the same molecule?
Answer: 0.5 µg/mL

Question: What about the MIC [15, 16] of the same molecule?
Answer: 4 µg/mL

Question: What about the MIC ([15]; substance alone, read-out: MIC) of the same molecule?
Answer: 4 µg/mL
